According to patent US20140296170A1, “PHARMACEUTICAL COMPOSITION FOR PREVENTION OR TREATMENT OF BONE DISEASES COMPRISING SPINASTEROL GLUCOSIDE DERIVATIVE” (Lifetree Biotech Co., Ltd., priority 2013, published 2014):

Key:
[1] = test system: cartilage of SD rats (osteoblast defected (OD) models); test: Cartilage regeneration in osteoblast defected (OD) models; format: in vivo; conditions: 1 mg/kg orally once every two days for 4 weeks
Experimental: The cartilage regeneration activity of spinasterol glucoside derivatives were evaluated in osteoblast defected (OD) models which were widely used in study on the regeneration of degenerative articular cartilage. The cartilage of SD rats, at least 9 weeks of age, was destroyed by a […] drill, followed by suturing the muscle and lipid tissues so as to allow them to go about normal daily life. Then, 3-o-β-D-glucopyranosyl-spinasterol dissolved in distilled water was orally administered at a dose of 1 mg/kg once every two days for 4 weeks. Afterwards, the animals were sacrificed, and opened around the knee to take articular cartilage tissues, followed by decalcification for 4 weeks. The cartilage tissues thus softened were paraffinized, and dyed with Safran O solution to visualize the regeneration of the cartilage.

[2] = test system: collagen-induced arthritis in DBA1/J mice; test: Collagen-induced arthritis model in DBA1/J mice; format: in vivo; conditions: FIG. 1

Q: With `CC[C@H](/C=C/[C@@H](C)[C@H]1CC[C@H]2C3=CC[C@H]4C[C@@H](O[C@@H]5O[C@H](CO)[C@@H](O)[C@H](O)[C@H]5O)CC[C@]4(C)[C@H]3CC[C@]12C)C(C)C` [3-o-β-D-glucopyranosyl-spinasterol] as the compound, how does the levels of chondrocytes ([1]; SD rats OD model) read?
A: The levels of chondrocytes was “greatly increased levels”.

Q: And the “levels of mast cells” value ([1]; SD rats OD model)?
A: Its value is “greatly increased levels”.

Q: And the levels of mucin ([1]; SD rats OD model)?
A: Its levels of mucin is “greatly increased levels”.

Q: What about the “regeneration of cartilage tissues (Safran O staining)” value ([1]; SD rats, cartilage destroyed by drill, compared to the control (b), FIG. 2) of the same compound?
A: Its value is “significant regeneration of cartilage tissues”.

Q: What about the “degree of collagen-induced arthritis (clinical severity by paw swelling, verified by micro-CT morphometry)” value ([2]; CII/CFA immunization, 10 μM/kg of weight three times a week for 28 days, observed 42 days later, compared to the positive control (CIA)) of the same compound?
A: Its value is “reduced in the degree of collagen-induced arthritis”.

Q: And the “regeneration of cartilage at the worn joint” value ([2]; collagen-induced arthritis, 10 μM/kg three times a week for 28 days)?
A: The value was “showed regeneration of cartilage at the worn joint”.
